Experimental data taken from US10189843B2, “Fused pyrazole derivative having autotaxin inhibitory activity” (The University of Tokyo, priority 2014, dated 2019).

Biological target: T1, Human autotaxin enzyme (Homo sapiens, UniProt Q13822)
T1 construct: purchased R&D System
Assay: Evaluation of autotaxin inhibitor, Method C (18:0 Lyso PC substrate, choline assay, Resorufin fluorescence)
Type: biochemical
Conditions: Method C (Test Example 3), read-out: Inhibitory activity (enzyme inhibitory activity, IC50)
Protocol: Test Example 3 (Method C) Evaluation of Autotaxin Inhibitor
Solution B containing 100 mM Tris-HCl buffer (pH7.5), 150 mM NaCl, 5 mM MgCl2, and 0.05% Triton X-100 was prepared. Human autotaxin enzyme (purchased from R&D System) was diluted with Solution B, and 2.5 μl of which was added to a solution of test compound in DMSO. Furthermore, 2.5 μl of 200 μM 18:0 Lyso PC (purchased from Avanti Polar Lipids) in Solution B was added and allowed to react at room temperature for 2 hours. After completion of the reaction, 15 μl of the coline assay reagent (100 mM Tris-HCl buffer (pH7.5), 5 mM MgCl2, 77 μg/ml coline oxidase, 10 μg/ml peroxydase, 25 μM 10-acetyl-3,7-dihydroxyphenoxazine, and excess autotaxin inhibitor) was added and allowed to react at room temperature for 20 minutes. The fluorescent dye Resorufin, which was produced by the reaction, was detected. The fluorescence was detected using ViewLux (PerkinElmer, Inc.) with a excitation wavelength of 531 nm and a fluorescence wavelength of 598 nm.
The percent inhibition of the test compound was calculated by assuming the sample with no test compound as 0% inhibition and the sample with no enzyme as 100% inhibition, and the percent inhibitions at different concentrations of the test compound were plotted to obtain a concentration-dependent curve.

Row | Structure (SMILES) | IC50
1 | CCCCCC1CN(CC(=O)N2CCCCC2CC(=O)O)C(=O)c2cc(-c3ccc(Cl)cc3)nn21 (centres unmarked) [Compound I-0068] | < 10 nM
2 | CCCCCC1CN(CC(=O)N[C@H](C(=O)O)c2ccccc2)C(=O)c2cc(-c3ccc(Cl)cc3)nn21 (some centres unmarked) [Compound I-0069] | < 10 nM
3 | CCCCCC1CN(CC(=O)N2CCC[C@H](C(=O)O)C2)C(=O)c2cc(-c3ccc(Cl)cc3)nn21 (some centres unmarked) [Compound I-0070] | 10 to 100 nM
4 | CCCCCC1CN(CC(=O)N2CCC[C@@H](C)C2)C(=O)c2cc(-c3ccc(Cl)cc3)nn21 (some centres unmarked) [Compound I-0071] | 100 to 1000 nM
5 | CCCCCC1CN(CC(=O)N2CCCC2Cc2ccccc2)C(=O)c2cc(-c3ccc(Cl)cc3)nn21 (centres unmarked) [Compound I-0072] | ≥ 1000 nM
6 | CCCCCC1CN(CC(=O)Nc2ccccn2)C(=O)c2cc(-c3ccc(Cl)cc3)nn21 (centres unmarked) [Compound I-0073] | ≥ 1000 nM
7 | CCCCCC1CN(CC(=O)N2CCC(C)C2)C(=O)c2cc(-c3ccc(Cl)cc3)nn21 (centres unmarked) [Compound I-0074] | 100 to 1000 nM
8 | CCCCCC1CN(CC(=O)N2CCC[C@@H]2C)C(=O)c2cc(-c3ccc(Cl)cc3)nn21 (some centres unmarked) [Compound I-0075] | 10 to 100 nM
9 | CCCCCC1CN(CC(=O)N2CCCC[C@H]2C)C(=O)c2cc(-c3ccc(Cl)cc3)nn21 (some centres unmarked) [Compound I-0076] | 100 to 1000 nM
10 | CCCCCC1CN(CC(=O)N(C)CC)C(=O)c2cc(-c3ccc(Cl)cc3)nn21 (centres unmarked) [Compound I-0077] | 100 to 1000 nM
11 | CCCCCC1CN(CC(=O)N2CCCC2CCCc2ccccc2)C(=O)c2cc(-c3ccc(Cl)cc3)nn21 (centres unmarked) [Compound I-0078] | ≥ 1000 nM
12 | CCCCCC1CN(CC(=O)N2CCCC2CCCC)C(=O)c2cc(-c3ccc(Cl)cc3)nn21 (centres unmarked) [Compound I-0079] | 100 to 1000 nM
13 | CCCCCC1CN(CC(=O)N2CCC[C@H](C)C2)C(=O)c2cc(-c3ccc(Cl)cc3)nn21 (some centres unmarked) [Compound I-0080] | 10 to 100 nM
14 | CCCCCC1CN(CC(=O)N2CCCC2C)C(=O)c2cc(-c3ccc(Cl)cc3)nn21 (centres unmarked) [Compound I-0081] | 100 to 1000 nM
15 | CCCCCC1CN(CC(=O)N2CCCC[C@@H]2C)C(=O)c2cc(-c3ccc(Cl)cc3)nn21 (some centres unmarked) [Compound I-0082] | 10 to 100 nM
16 | CCCCCC1CN(CC(=O)N2CCCCC2)C(=O)c2cc(-c3ccc(Cl)cc3)nn21 (centres unmarked) [Compound I-0083] | 100 to 1000 nM
17 | CCCCCC1CN(CC(=O)Nc2ccncc2)C(=O)c2cc(-c3ccc(Cl)cc3)nn21 (centres unmarked) [Compound I-0084] | ≥ 1000 nM
18 | CCCCCC1CN(CC(=O)N(C)c2ccncc2)C(=O)c2cc(-c3ccc(Cl)cc3)nn21 (centres unmarked) [Compound I-0085] | ≥ 1000 nM
19 | CCCCCC1CN(CC(=O)Nc2cccnc2)C(=O)c2cc(-c3ccc(Cl)cc3)nn21 (centres unmarked) [Compound I-0086] | 100 to 1000 nM
20 | CCCCCC1CN(CC(=O)Nc2ccccc2)C(=O)c2cc(-c3ccc(Cl)cc3)nn21 (centres unmarked) [Compound I-0087] | ≥ 1000 nM
21 | CCCCCC1CN(CC(=O)NCCCC)C(=O)c2cc(-c3ccc(Cl)cc3)nn21 (centres unmarked) [Compound I-0088] | 100 to 1000 nM
22 | CCCCCC1CN(CC(=O)N2CCCC(CO)C2)C(=O)c2cc(-c3ccc(Cl)cc3)nn21 (centres unmarked) [Compound I-0089] | 10 to 100 nM
23 | CCCCCC1CN(CC(=O)N2CCCCC2CO)C(=O)c2cc(-c3ccc(Cl)cc3)nn21 (centres unmarked) [Compound I-0090] | 10 to 100 nM

Row | Structure (SMILES) | IC50
24 | CCCCCC1CN(CC(=O)N2CCCCC2CC)C(=O)c2cc(-c3ccc(Cl)cc3)nn21 (centres unmarked) [Compound I-0091] | 100 to 1000 nM
25 | CCCCCC1CN(CC(=O)N2CCCC(O)C2)C(=O)c2cc(-c3ccc(Cl)cc3)nn21 (centres unmarked) [Compound I-0092] | 100 to 1000 nM
26 | CCCCCC1CN(CC(=O)N2CCC(C)CC2)C(=O)c2cc(-c3ccc(Cl)cc3)nn21 (centres unmarked) [Compound I-0093] | 100 to 1000 nM
27 | CCCCCC1CN(CC(=O)N2CCC(O)CC2)C(=O)c2cc(-c3ccc(Cl)cc3)nn21 (centres unmarked) [Compound I-0094] | 10 to 100 nM
28 | CCCCCC1CN(CC(=O)N2CCCC(C(N)=O)C2)C(=O)c2cc(-c3ccc(Cl)cc3)nn21 (centres unmarked) [Compound I-0095] | 10 to 100 nM
29 | CCCCCC1CN(CC(=O)N2CCC(CO)CC2)C(=O)c2cc(-c3ccc(Cl)cc3)nn21 (centres unmarked) [Compound I-0096] | 100 to 1000 nM
30 | CCCCCC1CN(CC(=O)N2CCCC2)C(=O)c2cc(-c3ccc(Cl)cc3)nn21 (centres unmarked) [Compound I-0097] | 100 to 1000 nM
31 | CCCCCC1CN(CC(=O)N2CCCCCC2)C(=O)c2cc(-c3ccc(Cl)cc3)nn21 (centres unmarked) [Compound I-0098] | 100 to 1000 nM
32 | CCCCCC1CN(CC(=O)NCc2ccccc2)C(=O)c2cc(-c3ccc(Cl)cc3)nn21 (centres unmarked) [Compound I-0099] | 100 to 1000 nM
33 | CCCCCC1CN(CC(=O)N2CCNCC2)C(=O)c2cc(-c3ccc(Cl)cc3)nn21 (centres unmarked) [Compound I-0100] | 100 to 1000 nM
34 | CCCCCC1CN(CC(=O)N2CCOCC2)C(=O)c2cc(-c3ccc(Cl)cc3)nn21 (centres unmarked) [Compound I-0101] | 100 to 1000 nM
35 | CCCCCC1CN(CC(=O)N(C)CCN(C)C)C(=O)c2cc(-c3ccc(Cl)cc3)nn21 (centres unmarked) [Compound I-0102] | ≥ 1000 nM
36 | CCCCCC1CN(CC(=O)NCCN(C)C)C(=O)c2cc(-c3ccc(Cl)cc3)nn21 (centres unmarked) [Compound I-0103] | ≥ 1000 nM
37 | CCCCCC1CN(CC(=O)NCCCN(C)C)C(=O)c2cc(-c3ccc(Cl)cc3)nn21 (centres unmarked) [Compound I-0104] | ≥ 1000 nM
38 | CCCCCC1CN(CC(=O)N2CCCCC2c2ccccc2)C(=O)c2cc(-c3ccc(Cl)cc3)nn21 (centres unmarked) [Compound I-0105] | 100 to 1000 nM
39 | CCCCCC1CN(CC(=O)N2CCCC(c3ccccc3)C2)C(=O)c2cc(-c3ccc(Cl)cc3)nn21 (centres unmarked) [Compound I-0106] | 100 to 1000 nM
40 | CCCCCC1CN(CC(=O)N2CCCC2c2ccccc2)C(=O)c2cc(-c3ccc(Cl)cc3)nn21 (centres unmarked) [Compound I-0107] | 100 to 1000 nM
41 | CCCCCC1CN(CC(=O)NCC)C(=O)c2cc(-c3ccc(Cl)cc3)nn21 (centres unmarked) [Compound I-0108] | 100 to 1000 nM
42 | CCCCCC1CN(CC(=O)N2CCCCC2CCN2CCOCC2)C(=O)c2cc(-c3ccc(Cl)cc3)nn21 (centres unmarked) [Compound I-0109] | ≥ 1000 nM
43 | CCCCCC1CN(CC(=O)N2CCC(c3ccccc3)C2)C(=O)c2cc(-c3ccc(Cl)cc3)nn21 (centres unmarked) [Compound I-0110] | 100 to 1000 nM
44 | CCCCCC1CN(CC(=O)N2CCC(N(C)C)CC2)C(=O)c2cc(-c3ccc(Cl)cc3)nn21 (centres unmarked) [Compound I-0111] | ≥ 1000 nM
45 | CCCCCC1CN(CC(=O)N2CCC(C(N)=O)C2)C(=O)c2cc(-c3ccc(Cl)cc3)nn21 (centres unmarked) [Compound I-0112] | 100 to 1000 nM
46 | CCCCCC1CN(CC(=O)N2CCC(=O)CC2)C(=O)c2cc(-c3ccc(Cl)cc3)nn21 (centres unmarked) [Compound I-0113] | 10 to 100 nM

Row | Structure (SMILES) | IC50
47 | CCCCCC1CN(CC(=O)OCC2CCCCN2)C(=O)c2cc(-c3ccc(Cl)cc3)nn21 (centres unmarked) [Compound I-0114] | ≥ 1000 nM
48 | CCCCCC1CN(CC(=O)N2CCCC(C)C2)C(=O)c2cc(-c3ccc(Cl)cc3)nn21 (centres unmarked) [Compound I-0115] | 100 to 1000 nM
49 | CCCCCC1CN(CC(=O)N2CCCCC2C)C(=O)c2cc(-c3ccc(Cl)cc3)nn21 (centres unmarked) [Compound I-0116] | 10 to 100 nM
50 | CCCCCC1CN(CC(=O)N2CCC[C@H]2C)C(=O)c2cc(-c3ccc(Cl)cc3)nn21 (some centres unmarked) [Compound I-0117] | 100 to 1000 nM
51 | CCCCCC1CN(CC(=O)N(C)c2ccc(C(=O)O)cc2)C(=O)c2cc(-c3ccc(Cl)cc3)nn21 (centres unmarked) [Compound I-0118] | ≥ 1000 nM
52 | CCCCCC1CN(CC(=O)NCc2ccccc2C(=O)O)C(=O)c2cc(-c3ccc(Cl)cc3)nn21 (centres unmarked) [Compound I-0119] | 10 to 100 nM
53 | CCCCCC1CN(Cc2cccc(CC(=O)O)c2)C(=O)c2cc(-c3ccc(Cl)cc3)nn21 (centres unmarked) [Compound I-0120] | 10 to 100 nM
54 | CCCCCC1CN(Cc2cccc3c(C(=O)O)csc23)C(=O)c2cc(-c3ccc(Cl)cc3)nn21 (centres unmarked) [Compound I-0121] | 10 to 100 nM
55 | CCCCCC1CN(Cc2cc(C)cc(C(=O)O)c2)C(=O)c2cc(-c3ccc(Cl)cc3)nn21 (centres unmarked) [Compound I-0122] | 10 to 100 nM
56 | CCCCCC1CN(Cc2ccc(O)cc2)C(=O)c2cc(-c3ccc(Cl)cc3)nn21 (centres unmarked) [Compound I-0123] | ≥ 1000 nM
57 | CCCCCC1CN(Cc2ccc(CC(=O)O)cc2)C(=O)c2cc(-c3ccc(Cl)cc3)nn21 (centres unmarked) [Compound I-0124] | < 10 nM
58 | CCCCCC1CN(Cc2cccc(CC(=O)OCC)c2)C(=O)c2cc(-c3ccc(Cl)cc3)nn21 (centres unmarked) [Compound I-0125] | ≥ 1000 nM
59 | CCCCCC1CN(Cc2cc(C)cc(C(=O)OC)c2)C(=O)c2cc(-c3ccc(Cl)cc3)nn21 (centres unmarked) [Compound I-0126] | ≥ 1000 nM
60 | CCCCCC1CN(Cc2ccccc2C)C(=O)c2cc(-c3ccc(Cl)cc3)nn21 (centres unmarked) [Compound I-0127] | ≥ 1000 nM
61 | CCCCCC1CN(Cc2cccc(C)c2)C(=O)c2cc(-c3ccc(Cl)cc3)nn21 (centres unmarked) [Compound I-0128] | ≥ 1000 nM
62 | CCCCCC1CN(Cc2ccccc2C#N)C(=O)c2cc(-c3ccc(Cl)cc3)nn21 (centres unmarked) [Compound I-0129] | ≥ 1000 nM
63 | CCCCCC1CN(Cc2ccc(C)cc2)C(=O)c2cc(-c3ccc(Cl)cc3)nn21 (centres unmarked) [Compound I-0130] | 100 to 1000 nM
64 | CCCCCC1CN(Cc2cccc(C#N)c2)C(=O)c2cc(-c3ccc(Cl)cc3)nn21 (centres unmarked) [Compound I-0131] | 100 to 1000 nM
65 | CCCCCC1CN(Cc2ccc(C#N)cc2)C(=O)c2cc(-c3ccc(Cl)cc3)nn21 (centres unmarked) [Compound I-0132] | 10 to 100 nM
66 | CCCCCC1CN(Cc2ccc(NC(C)=O)cc2)C(=O)c2cc(-c3ccc(Cl)cc3)nn21 (centres unmarked) [Compound I-0133] | ≥ 1000 nM
67 | CCCCCC1CN(Cc2ccc(OCCCN(C)C)cc2)C(=O)c2cc(-c3ccc(Cl)cc3)nn21 (centres unmarked) [Compound I-0134] | ≥ 1000 nM
68 | CCCCCC1CN(Cc2cccc(OCCCN(C)C)c2)C(=O)c2cc(-c3ccc(Cl)cc3)nn21 (centres unmarked) [Compound I-0135] | 100 to 1000 nM
